One experiment deals with DCs. Description: TNFα secretion from DCs (ELISA). In kind it is cell-based, mouse. The note with it: LPS-primed DCs. The source says: C57BL/6J (Jax 000664), C57BL/6NJ (Jax 005304), CD14 KO (Jax 003726), caspase-1/-11 dKO mice (Jax 016621), TLR4-mutant (C3H/HeJ, Jax 000659), and wild-type control for TLR4-mutant (C3H/HeSNJ, Jax 000661) were purchased from Jackson Labs. NLRP3 KO and ASC KO mice were kindly provided by Dr. T. Horng, Harvard School of Public Health. Caspase-11 KO mice were kindly provided by Dr. Junying Yuan, Harvard Medical School. Caspase-1 single KO mice were kindly provided by Thirumala-Devi Kanneganti (St. Judes). DCs were differentiated from bone marrow in IMDM (Gibco), 10% B16-GM-CSF derived supernatant, 2 μM 2-mercaptoethanol and 10% FBS and used after 6 day of culture. DC purity was assessed by flow cytometry and was usually higher than 90%. MO were differentiated from bone marrow in DMEM (Gibco), 30% L929 supernatant, and 10% FBS. Immortal MΦs were cultured in DMEM supplemented with 10% L929 supernatant and 10% FBS. Splenic DCs were purified as described previously (Zanoni et al., 2012). Prior to stimulations, cultured cells were washed and re-plated in DMEM supplemented with 10% FBS at a concentration of 1×10^6 cells/ml in a final volume of 100 μl. For experiments using pan-caspase inhibitor, cells were treated with zVADfmk (20 μM) 30 min before inflammasome activation stimuli addition. […]
RNA was isolated from cell cultures using Qiashedder (Qiagen) and GeneJET RNA Purification Kit (Life Technologies). Purified RNA was analyzed for gene expression on a CFX384 real time cycler (Bio-rad) using TaqMan RNA-to-CT 1-Step Kit (Applied Biosystems) with probes purchased from Life Technologies specific for viperin (Mm00491265_m1), IFNb1 (Mm00439552_s1), IL6 (Mm00446190_m1), caspase-1 (Mm00438023_m1), caspase-11 (Mm00432307_m1), Nlrp3 (Mm00840904_m1), Asc (Mm00445747_g1), TBP (Mm00446971_m1) or GAPDH (Mm99999915_g1). ELISA for IL-1β, IL-2, IL-17, IL-18, TNFα and IFNγ were performed using Mouse Ready-SET-Go ELISA kits (eBioscience). […] Cell associated cytokines were measured as follows: 96-well plates were centrifuged and supernatant was discarded. […]
(In general: In an ELISA, binding on a coated surface is turned into a signal by an enzyme label.)

Experiment [1] deals with T1, catalytic mutant caspase-11 full length (C254A) (Mus musculus, UniProt P70343, C254A).
T1 construct: recombinant catalytic mutant caspase-11 full length (C254A); His; made in house; host or cells: SF-21 insect cells (baculovirus)
T1 sequence (P70343 81-373 C254A): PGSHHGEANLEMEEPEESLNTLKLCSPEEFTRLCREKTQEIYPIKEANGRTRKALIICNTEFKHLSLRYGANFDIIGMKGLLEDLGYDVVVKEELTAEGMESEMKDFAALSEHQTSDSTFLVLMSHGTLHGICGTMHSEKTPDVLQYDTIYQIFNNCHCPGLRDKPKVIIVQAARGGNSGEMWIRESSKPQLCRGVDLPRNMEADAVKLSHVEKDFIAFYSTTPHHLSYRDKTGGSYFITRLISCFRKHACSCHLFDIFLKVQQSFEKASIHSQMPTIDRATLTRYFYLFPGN
Kind of experiment: SPR analysis of lipid binding to immobilized full length caspase-11 (C254A). The method, then: For studies to measure the direct binding of oxPAPC to caspase-11, proteins and SPR analysis was performed as described (Shi, J., et al., (2014b) Nature). Briefly, the recombinant catalytic mutant caspase-11 full length (C254A) and caspase-11 ΔN59 (C254A) were purified from P3 baculovirus infected SF-21 insect cells that were cultured in Sf900™ II SFM for 72 h at 28° C. Cells were lysed in lysis buffer containing 1% Triton X-100, 50 mM Tris-HCl (pH 7.6), 300 mM NaCl, 50 mM imidazole and 5 mM 2-mercaptoethanol. Ni-NTA beads (Qiagen) were used to purify His-tagged proteins from lysates. Proteins were released from the beads with elution buffer containing 50 mM Tris-HCl (pH 7.6), 250 mM imidazole and 300 mM NaCl. Imidazole was removed by dialysis. The proteins were further purified with HiTrap Q column and Superdex G200 column (GE Healthcare Life Sciences) to reach high homogeneity.
For surface plasmon resonance (SPR) analysis, BIAcore T100 SPR instrument (GE Healthcare) was used to measure the ligand binding kinetics. The assays were performed in a buffer containing 150 mM NaCl, 3 mM EDTA, 50 mM HEPES (pH 7.5) and 0.005% Tween-20 at 25° C. […] The KD values were calculated by fitting result curves (subtracted the control flow cell value) to a 1:1 Langmuir binding model with the BIAcore T100 evaluation software.
Background: Surface plasmon resonance follows binding to a sensor surface in real time, without labels.

The test system of a further experiment is bone marrow derived DCs. Description: IL-1β release from DCs (ELISA). In kind it is cell-based, mouse. The note with it: for IL-1β release: LPS-primed DCs. The procedure:
NLRP3 KO and ASC KO mice were kindly provided by Dr. T. Horng, Harvard School of Public Health. Caspase-11 KO mice were kindly provided by Dr. Junying Yuan, Harvard Medical School. Caspase-1 single KO mice were kindly provided by Thirumala-Devi Kanneganti (St. Judes). DCs were differentiated from bone marrow in IMDM (Gibco), 10% B16-GM-CSF derived supernatant, 2 μM 2-mercaptoethanol and 10% FBS and used after 6 day of culture. […] MO were differentiated from bone marrow in DMEM (Gibco), 30% L929 supernatant, and 10% FBS. Immortal MΦs were cultured in DMEM supplemented with 10% L929 supernatant and 10% FBS. […] For experiments using pan-caspase inhibitor, cells were treated with zVADfmk (20 μM) 30 min before inflammasome activation stimuli addition. Cycloheximide (50 ng/ml) was added at the time of stimuli administration. Transfection with DOTAP was performed following the manufacturer instructions. […] 30 min later, the DOTAP/LPS or DOTAP/oxPAPC complex were added to the culture.
RNA was isolated from cell cultures using Qiashedder (Qiagen) and GeneJET RNA Purification Kit (Life Technologies). Purified RNA was analyzed for gene expression on a CFX384 real time cycler (Bio-rad) using TaqMan RNA-to-CT 1-Step Kit (Applied Biosystems) with probes purchased from Life Technologies specific for viperin (Mm00491265_m1), IFNb1 (Mm00439552_s1), IL6 (Mm00446190_m1), caspase-1 (Mm00438023_m1), caspase-11 (Mm00432307_m1), Nlrp3 (Mm00840904_m1), Asc (Mm00445747_g1), TBP (Mm00446971_m1) or GAPDH (Mm99999915_g1). ELISA for IL-1β, IL-2, IL-17, IL-18, TNFα and IFNγ were performed using Mouse Ready-SET-Go ELISA kits (eBioscience). To measure secreted cytokines, supernatant were collected, clarified by centrifugation and stored at −20° C. Cell associated cytokines were measured as follows: 96-well plates were centrifuged and supernatant was discarded. 250 μl of PBS were added to each well. Cells were frozen and thawed two times at −80° C. and then stored at −20° C. for further analysis.

The subject of another experiment is inflammasome in DCs. Description: Inflammasome activation (FIGS. 6-42). The experiment is classed as cell-based.
The target in another experiment is T2, CD14 (Mus musculus, UniProt P10810).
T2 construct: endogenous in cells; host or cells: iMΦ, primary bone marrow derived MΦ and DCs
T2 sequence (P10810 16-336 limits assumed): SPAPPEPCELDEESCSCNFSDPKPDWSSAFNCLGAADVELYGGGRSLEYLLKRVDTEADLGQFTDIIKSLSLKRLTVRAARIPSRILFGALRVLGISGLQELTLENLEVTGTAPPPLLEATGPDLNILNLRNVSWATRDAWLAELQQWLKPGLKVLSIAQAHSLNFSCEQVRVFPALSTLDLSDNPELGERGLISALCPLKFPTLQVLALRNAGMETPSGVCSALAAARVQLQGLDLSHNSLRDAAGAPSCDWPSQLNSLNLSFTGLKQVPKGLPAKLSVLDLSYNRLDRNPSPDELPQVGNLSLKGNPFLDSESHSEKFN
Description: CD14 endocytosis (surface staining, flow cytometry). The experiment is classed as cell-based. The settings on record: protein synthesis blocked with cycloheximide. The procedure:
(§1) primary bone marrow derived MΦs and DCs or splenic DCs (0.5×10^6) of the indicated genotypes were treated with E. coli LPS, oxPAPC or chemical inhibitors for the indicated time points at 37° C. Cells were then washed with 1 mL cold PBS and stained for appropriate antibodies on ice for 20 to 30 minutes. 2% mouse serum or rat serum were used as the blocking reagent to reduce non-specific binding of the antibodies. The stained cells were then washed with 1 mL cold PBS and resuspended in 200 μL PBS. Staining of the surface receptors was analyzed with BD FACSCanto II. The mean fluorescence intensity (MFI) of CD14, TLR4 from unstimulated or stimulated cells was recorded. The percentage of surface receptor staining at indicated time points, which is the ratio of the MFI values measured from the stimulated cells to those measured from the unstimulated cells, was plotted to reflect the efficiency of receptor endocytosis. For measuring the extent of TLR4/MD-2 dimerization, the percentage of TLR4/MD2 dimer was calculated by 100%−the percentage of TLR4/MD-2 monomer. The percentage of the TLR4/MD-2 monomer was determined by the ratio of the MFI values (obtained from MTS510 antibody staining) of the stimulated cells to those of the unstimulated cells were indicated. Cells were stained with anti-MHC class II or anti-CD40 antibodies.

For another experiment, the target named is T3, TLR4 (Mus musculus, UniProt Q9JHF9+Q9QUK6).
T3 construct: endogenous in cells; host or cells: iMΦ, primary bone marrow derived MΦ and DCs
T3 sequence (Q9QUK6 26-835): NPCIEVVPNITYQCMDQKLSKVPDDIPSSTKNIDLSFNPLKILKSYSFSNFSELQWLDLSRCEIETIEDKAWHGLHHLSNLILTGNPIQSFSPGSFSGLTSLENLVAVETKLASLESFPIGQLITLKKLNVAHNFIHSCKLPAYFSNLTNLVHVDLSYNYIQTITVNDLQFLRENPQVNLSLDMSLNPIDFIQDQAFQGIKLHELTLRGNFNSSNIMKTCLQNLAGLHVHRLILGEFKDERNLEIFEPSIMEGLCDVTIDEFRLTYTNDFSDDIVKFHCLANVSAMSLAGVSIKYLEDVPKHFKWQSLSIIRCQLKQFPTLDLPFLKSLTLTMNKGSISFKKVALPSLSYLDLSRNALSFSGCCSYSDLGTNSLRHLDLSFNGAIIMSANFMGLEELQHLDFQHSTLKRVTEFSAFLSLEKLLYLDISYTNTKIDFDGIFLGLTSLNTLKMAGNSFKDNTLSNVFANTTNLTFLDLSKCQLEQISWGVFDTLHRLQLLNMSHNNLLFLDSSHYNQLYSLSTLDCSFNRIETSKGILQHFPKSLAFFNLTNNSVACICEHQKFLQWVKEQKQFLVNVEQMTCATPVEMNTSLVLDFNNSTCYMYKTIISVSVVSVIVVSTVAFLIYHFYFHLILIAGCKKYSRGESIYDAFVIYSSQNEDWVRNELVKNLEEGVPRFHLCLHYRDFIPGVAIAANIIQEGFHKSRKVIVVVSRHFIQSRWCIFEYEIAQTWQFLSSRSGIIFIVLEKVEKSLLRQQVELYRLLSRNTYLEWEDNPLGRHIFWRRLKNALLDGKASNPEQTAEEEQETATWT
T3 sequence (Q9JHF9 19-160): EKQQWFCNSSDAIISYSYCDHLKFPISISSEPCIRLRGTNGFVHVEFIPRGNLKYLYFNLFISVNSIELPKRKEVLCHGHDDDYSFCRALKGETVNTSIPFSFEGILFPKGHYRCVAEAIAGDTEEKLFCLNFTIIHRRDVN
Kind of experiment: TLR4 endocytosis (surface staining, flow cytometry). In kind it is cell-based. The settings on record: cycloheximide treatment. The procedure: as §1
(A flow cytometer gives signals particle by particle.)

Take `CCCCCCCCCCCCCC(=O)OC[C@H](COP(=O)([O-])OCC[N+](C)(C)C)OC(=O)CCCCCCCCCCCCC` [DMPC, 1,2-dimyristoyl-sn-glycero-3-phosphocholine]: in the experiment on DCs, the TNFα release result is given as “not affected”. In experiment [1], the “binding to immobilized caspase-11(C254A) on SPR” value was “did not bind detectably”. In addition, the IL-1β release result in the experiment on bone marrow derived DCs was “unable to elicit IL-1β release”.

As for `CCCCCCCCCCCCCCCC(=O)OC[C@H](COP(=O)([O-])OCC[N+](C)(C)C)OC(=O)CCCC(=O)/C=C/C(=O)O` [KOdiA-PC, 1-(Palmitoyl)-2-(5-keto-6-octene-dioyl) phosphatidylcholine], the inflammasome activation result in the experiment with inflammasome in DCs is reported as “activated the inflammasome in DCs”. In the experiment on DCs, the TNFα release result was “not affected”. Moreover, the IL-1β release entry with bone marrow derived DCs is on record as “able to elicit IL-1β secretion”.

Consider `CCN(CC)CCCC(C)Nc1ccnc2cc(Cl)ccc12` (stereo not drawn) [chloroquine], for which the “IL-1β release from DCs” value in the experiment with bone marrow derived DCs (chloroquine pre-treatment, LPS-primed, oxPAPC-treated) is reported as “promoted slightly more release of IL-1β”.

As to `C[C@@H]1C[C@@H]([C@H](O)CC2CC(=O)NC(=O)C2)C(=O)[C@@H](C)C1` [cycloheximide], the “extent of oxPAPC- or LPS-induced CD14 endocytosis” value at CD14 is listed as “enhanced”. The “TLR4 internalization or dimerization” value at TLR4 was “did not affect”.
